Source: ChEMBL document CHEMBL4387706, “Discovery of Novel Spiroindoline Derivatives as Selective Tankyrase Inhibitors” (J Med Chem, 2019)
Converted amounts (≈) assume the structure as drawn.

Tests used:
[1] = target: T1, Poly [ADP-ribose] polymerase tankyrase-1 (Homo sapiens, UniProt O95271)
T1 sequence (O95271 whole entry): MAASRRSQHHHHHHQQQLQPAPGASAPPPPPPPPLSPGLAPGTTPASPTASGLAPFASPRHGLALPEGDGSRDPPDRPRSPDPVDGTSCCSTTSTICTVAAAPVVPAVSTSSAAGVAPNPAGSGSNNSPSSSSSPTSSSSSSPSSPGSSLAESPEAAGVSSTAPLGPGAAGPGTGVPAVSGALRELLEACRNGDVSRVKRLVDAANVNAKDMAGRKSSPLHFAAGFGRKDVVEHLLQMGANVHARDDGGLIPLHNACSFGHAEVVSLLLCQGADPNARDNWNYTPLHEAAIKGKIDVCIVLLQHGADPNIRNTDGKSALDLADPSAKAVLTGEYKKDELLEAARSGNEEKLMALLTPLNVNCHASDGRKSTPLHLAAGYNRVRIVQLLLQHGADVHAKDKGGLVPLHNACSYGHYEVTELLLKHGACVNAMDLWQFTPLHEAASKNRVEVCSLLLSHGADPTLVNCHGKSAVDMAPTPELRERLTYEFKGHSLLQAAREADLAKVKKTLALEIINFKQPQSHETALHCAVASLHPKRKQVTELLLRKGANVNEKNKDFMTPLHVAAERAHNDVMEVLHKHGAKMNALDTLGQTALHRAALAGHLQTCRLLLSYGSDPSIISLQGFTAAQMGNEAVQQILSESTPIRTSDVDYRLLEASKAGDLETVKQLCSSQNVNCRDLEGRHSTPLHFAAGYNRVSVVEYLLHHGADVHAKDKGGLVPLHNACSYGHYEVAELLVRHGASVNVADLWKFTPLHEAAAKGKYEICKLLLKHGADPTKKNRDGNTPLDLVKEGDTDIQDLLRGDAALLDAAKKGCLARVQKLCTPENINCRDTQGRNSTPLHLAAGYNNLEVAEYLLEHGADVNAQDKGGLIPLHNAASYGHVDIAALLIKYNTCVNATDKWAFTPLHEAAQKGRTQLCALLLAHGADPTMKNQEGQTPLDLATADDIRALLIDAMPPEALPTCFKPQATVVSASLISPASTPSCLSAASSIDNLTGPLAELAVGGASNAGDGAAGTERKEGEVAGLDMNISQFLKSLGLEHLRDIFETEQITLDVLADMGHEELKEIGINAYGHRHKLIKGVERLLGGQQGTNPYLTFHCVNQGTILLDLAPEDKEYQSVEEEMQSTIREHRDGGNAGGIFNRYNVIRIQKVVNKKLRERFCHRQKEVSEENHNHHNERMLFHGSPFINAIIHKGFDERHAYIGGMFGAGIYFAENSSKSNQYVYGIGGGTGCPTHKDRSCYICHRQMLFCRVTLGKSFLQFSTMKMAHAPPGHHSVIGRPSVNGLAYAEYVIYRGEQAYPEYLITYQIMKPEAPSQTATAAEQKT
Description: Inhibition of recombinant human N-terminal TEV cleavage site-fused/FLAG-poly his-tagged TNKS SAM-PARP domain (1024 to 1327 residues) expressed in Escherichia coli assessed as reduction in auto-PARylation preincubated for 10 mins followed by biotinylated-NAD+ addition and measured after 45 mins by ELISA

[2] = target: T2, Poly [ADP-ribose] polymerase tankyrase-2 (Homo sapiens, UniProt Q9H2K2)
T2 sequence (Q9H2K2 whole entry): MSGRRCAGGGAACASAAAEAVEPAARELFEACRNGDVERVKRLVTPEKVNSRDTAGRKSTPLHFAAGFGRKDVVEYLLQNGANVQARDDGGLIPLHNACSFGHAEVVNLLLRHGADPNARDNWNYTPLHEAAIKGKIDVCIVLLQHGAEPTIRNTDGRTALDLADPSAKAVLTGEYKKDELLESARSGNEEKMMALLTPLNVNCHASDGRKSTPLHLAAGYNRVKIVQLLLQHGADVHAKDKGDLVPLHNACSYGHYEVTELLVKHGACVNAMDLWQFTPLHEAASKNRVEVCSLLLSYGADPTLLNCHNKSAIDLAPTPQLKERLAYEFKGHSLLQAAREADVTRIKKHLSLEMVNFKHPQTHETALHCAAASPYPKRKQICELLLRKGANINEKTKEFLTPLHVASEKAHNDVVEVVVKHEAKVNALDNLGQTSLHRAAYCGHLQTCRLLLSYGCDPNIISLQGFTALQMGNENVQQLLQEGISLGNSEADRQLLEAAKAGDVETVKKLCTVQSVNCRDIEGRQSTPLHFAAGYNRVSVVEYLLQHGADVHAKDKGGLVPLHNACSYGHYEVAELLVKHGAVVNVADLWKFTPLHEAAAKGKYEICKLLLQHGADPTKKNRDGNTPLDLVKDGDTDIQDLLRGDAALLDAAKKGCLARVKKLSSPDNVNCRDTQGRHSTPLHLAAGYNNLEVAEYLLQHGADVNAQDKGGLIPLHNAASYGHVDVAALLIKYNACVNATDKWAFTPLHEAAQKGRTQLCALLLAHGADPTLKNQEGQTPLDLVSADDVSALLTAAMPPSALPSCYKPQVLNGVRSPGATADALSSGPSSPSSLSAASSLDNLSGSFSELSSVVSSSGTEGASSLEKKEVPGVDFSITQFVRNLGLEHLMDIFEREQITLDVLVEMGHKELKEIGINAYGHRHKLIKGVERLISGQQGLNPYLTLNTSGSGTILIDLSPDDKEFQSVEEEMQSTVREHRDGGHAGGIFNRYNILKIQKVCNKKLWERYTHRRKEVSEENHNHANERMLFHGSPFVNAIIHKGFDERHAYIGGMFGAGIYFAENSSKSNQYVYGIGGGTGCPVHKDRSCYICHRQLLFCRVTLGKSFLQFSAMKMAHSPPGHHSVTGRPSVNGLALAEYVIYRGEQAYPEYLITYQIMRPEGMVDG
Description: Inhibition of recombinant human N-terminal TEV cleavage site-fused/FLAG-poly his-tagged TNKS2 SAM-PARP domain (613 to 1166 residues) expressed in Escherichia coli assessed as reduction in auto-PARylation preincubated for 10 mins followed by biotinylated-NAD+ addition and measured after 45 mins by ELISA

[3] = target: Poly [ADP-ribose] polymerase 1 (Homo sapiens, UniProt P09874)
Description: Inhibition of recombinant human PARP1 expressed in Escherichia coli assessed as reduction in auto-PARylation using histone as substrate measured after 45 mins in presence of biotinylated-NAD+ by ELISA

Tankyrase 1/2 = target: T3, Tankyrase 1/2 (Homo sapiens, UniProt Q9H2K2+O95271)
T3 sequence (Q9H2K2 whole entry): T2 sequence (Q9H2K2 whole entry)
T3 sequence (O95271 whole entry): T1 sequence (O95271 whole entry)
Description: Inhibition of TNKS/TNKS2 (unknown origin) expressed in human DLD1 cells assessed as reduction in Wnt-signaling measured after 24 hrs by TCF-luciferase reporter gene assay

COLO 320DM [4] = assay: cells; conditions: Homo sapiens, 96 h
Description: Antiproliferative activity against human COLO320DM cells assessed as inhibition of cell growth measured after 4 days by CellTiter-Glo assay

physchem = conditions: phosphate buffer, pH 7.4
in vitro [5] = conditions: human, liver microsomes
Description: Stability in human liver microsomes assessed as parent compound remaining at 1 uM measured after 30 mins in presence of NADPH by LC-MS/MS analysis

in vitro [6] = conditions: mouse, liver microsomes
Description: Stability in mouse liver microsomes assessed as parent compound remaining at 1 uM measured after 30 mins in presence of NADPH by LC-MS/MS analysis

[7] = Permeability of the compound by PAMPA; format: ADME; conditions: read-out: permeability
COLO 320DM [8] = assay: Antiproliferative activity against human COLO320DM cells assessed inhibition of cell growth measured after 5 days by MTT assay; format: functional; conditions: 120 h
RKO = assay: Antiproliferative activity against human RKO cells assessed inhibition of cell growth measured after 5 days by MTT assay; format: functional; conditions: 120 h
[9] = target: Tankyrase 1/2 (Homo sapiens) (UniProt Q9H2K2+O95271); assay: Inhibition of TNKS/TNKS2 in human COLO320DM cells assessed as upregulation of AXIN2 expression at 0.1 uM measured after 16 hrs by Western blot analysis relative to G007-LK; format: cell-based

Sequence of Poly [ADP-ribose] polymerase 1 (P09874 whole entry): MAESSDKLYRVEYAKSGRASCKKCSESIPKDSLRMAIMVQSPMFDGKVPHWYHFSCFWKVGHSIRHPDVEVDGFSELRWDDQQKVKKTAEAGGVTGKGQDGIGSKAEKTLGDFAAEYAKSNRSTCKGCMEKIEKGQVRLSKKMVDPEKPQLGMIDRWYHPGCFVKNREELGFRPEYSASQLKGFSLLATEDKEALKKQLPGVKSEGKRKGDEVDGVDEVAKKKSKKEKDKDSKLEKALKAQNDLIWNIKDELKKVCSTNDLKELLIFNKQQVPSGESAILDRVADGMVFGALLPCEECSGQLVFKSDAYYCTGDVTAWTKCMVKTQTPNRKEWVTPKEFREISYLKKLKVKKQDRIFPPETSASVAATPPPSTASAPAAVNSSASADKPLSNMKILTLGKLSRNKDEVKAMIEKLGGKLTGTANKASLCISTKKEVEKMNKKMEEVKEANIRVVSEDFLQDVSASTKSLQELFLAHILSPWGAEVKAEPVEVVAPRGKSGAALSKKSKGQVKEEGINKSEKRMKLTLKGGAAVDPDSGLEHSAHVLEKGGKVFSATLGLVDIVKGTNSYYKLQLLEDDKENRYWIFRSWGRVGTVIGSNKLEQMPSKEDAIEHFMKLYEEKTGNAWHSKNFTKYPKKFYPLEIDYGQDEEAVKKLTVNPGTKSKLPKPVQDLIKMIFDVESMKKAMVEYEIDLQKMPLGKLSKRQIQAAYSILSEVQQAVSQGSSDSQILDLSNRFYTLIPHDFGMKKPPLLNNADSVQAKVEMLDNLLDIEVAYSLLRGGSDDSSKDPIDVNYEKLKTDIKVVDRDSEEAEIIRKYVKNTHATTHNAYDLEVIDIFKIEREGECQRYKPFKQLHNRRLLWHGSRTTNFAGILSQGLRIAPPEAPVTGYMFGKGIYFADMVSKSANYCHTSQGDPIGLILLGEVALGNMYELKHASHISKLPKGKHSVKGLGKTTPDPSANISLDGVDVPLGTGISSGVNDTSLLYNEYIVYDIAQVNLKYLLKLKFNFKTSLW

| Compound | IC50 [1] [nM] | IC50 [2] [nM] | IC50 [3] [nM] | IC50 (Tankyrase 1/2) [nM] | GI50 (COLO 320DM [4]) [nM] | solubility at 1 h, 200 µM (physchem) [µg/mL] | remaining at 0.5 h, 1 µM (in vitro [5]) [%] | remaining at 0.5 h, 1 µM (in vitro [6]) [%] | Papp [7] [×10⁻⁶ cm/s] | GI50 (COLO 320DM [8]) [nM] | fold change (FC) [9] | GI50 (RKO) [nM] |
| --- | --- | --- | --- | --- | --- | --- | --- | --- | --- | --- | --- | --- |
| O=C1Nc2ccccc2C12CCN(c1nc3c(c(=O)[nH]1)CCCC3)CC2 | 27.6 | 25.1 | > 20000 | 591 | 11200 | 64.2 (≈ 183 µM) | 84.3 | 0 | – | – | – | – |
| O=c1[nH]c(N2CCC3(CC2)CN(CCO)c2ccccc23)nc2c1CCCC2 | 49.3 | 26.9 | > 20000 | 362 | 3900 | > 76.1 | – | – | 17.4 | 1770 | 0.98 | 220 |
| COc1ccccc1C1=CCN(c2nc3c(c(=O)[nH]2)CCCC3)CC1 | 35 | 49.7 | > 20000 | 1161 | 6300 | 14.2 (≈ 42.1 µM) | 99.3 | 91.7 | – | – | – | – |
| O=c1[nH]c(N2CCC3(CC2)CN(CCO)c2cccc(F)c23)nc2c1CCCC2 | 9.2 | 11.8 | > 20000 | 83.9 | 1400 | 74.6 (≈ 187 µM) | – | – | 7.6 | 260 | 3.63 | 90 |
| COc1ccccc1N1CCN(c2nc3c(c(=O)[nH]2)CSCC3)CC1 | 2.5 | 2.3 | > 20000 | 23.2 | 3800 | 0.5 (≈ 1.39 µM) | – | – | – | – | – | – |
| O=c1[nH]c(N2CCC3(CC2)COc2ccccc23)nc2c1CCCC2 | 43.4 | 14.6 | > 20000 | 608 | 10800 | 0.67 (≈ 1.99 µM) | 64.3 | 0.1 | – | – | – | – |
| O=C1N(CCO)c2ccccc2C12CCN(c1nc3c(c(=O)[nH]1)CCCC3)CC2 | 19 | 26 | > 20000 | 918 | 12700 | 78.7 (≈ 200 µM) | – | – | 2.9 | 2670 | 0.98 | 3400 |
| COc1ccc(N2CCN(c3nc4c(c(=O)[nH]3)CCCC4)CC2)cc1 | 35 | 45.5 | > 20000 | 1294 | > 20000 | 4.6 (≈ 13.5 µM) | – | – | – | – | – | – |
| O=c1[nH]c(N2CCC3(CC2)OCc2ccccc23)nc2c1CCCC2 | 31.5 | 35.7 | > 20000 | 342 | 5800 | 1.07 (≈ 3.17 µM) | 76.3 | 0 | – | – | – | – |
| COc1ccccc1N1CCN(c2nc3c(c(=O)[nH]2)C[S+]([O-])CC3)CC1 (stereo unspecified) | 6170 | 5340 | > 20000 | > 10000 | > 20000 | 8.8 (≈ 23.5 µM) | – | – | – | – | – | – |

Further molecules by falling IC50 [1], results first:

| IC50 [1] [nM] | IC50 [2] [nM] | IC50 [3] [nM] | IC50 (Tankyrase 1/2) [nM] | GI50 (COLO 320DM [4]) [nM] | solubility at 1 h, 200 µM (physchem) [µg/mL] | remaining at 0.5 h, 1 µM (in vitro [5]) [%] | remaining at 0.5 h, 1 µM (in vitro [6]) [%] | Papp [7] [×10⁻⁶ cm/s] | GI50 (COLO 320DM [8]) [nM] | fold change (FC) [9] | Compound | GI50 (RKO) [nM] |
| --- | --- | --- | --- | --- | --- | --- | --- | --- | --- | --- | --- | --- |
| 79.6 | 36.4 | > 20000 | 1971 | > 20000 | 1.1 (≈ 2.92 µM) | – | – | – | – | – | COc1ccc(N2CCN(c3nc4c(c(=O)[nH]3)CC(F)(F)CC4)CC2)cc1 | – |
| 67.6 | 112 | > 20000 | 1009 | 17100 | 12.3 (≈ 35.9 µM) | – | – | – | – | – | COc1ccccc1N1CCN(c2nc3c(c(=O)[nH]2)COCC3)CC1 | – |
| 65.4 | 67.6 | > 20000 | 531 | 4600 | 1 (≈ 2.95 µM) | 62.1 | 0 | – | – | – | COc1ccccc1C1CCN(c2nc3c(c(=O)[nH]2)CCCC3)CC1 | – |
| 30.2 | 18.3 | > 20000 | > 10000 | > 50000 | 1.17 (≈ 3.33 µM) | 28.1 | 0.1 | – | – | – | O=C1Oc2ccccc2C12CCN(c1nc3c(c(=O)[nH]1)CCCC3)CC2 | – |
| 28.5 | 20.7 | > 20000 | 352 | 13100 | 1.6 (≈ 4.76 µM) | 77.9 | 34.7 | – | – | – | O=c1[nH]c(N2CCC3(CC2)CNc2ccccc23)nc2c1CCCC2 | – |
| 18.2 | 16.4 | > 20000 | 119 | 2900 | 5.2 (≈ 11.6 µM) | – | – | – | 4650 | 4.03 | O=c1[nH]c(N2CCC3(CC2)CN(CCO)c2cc(Cl)cc(Cl)c23)nc2c1CCCC2 | 40 |
| 9 | 9.5 | > 20000 | 19.8 | 2600 | 55.9 (≈ 121 µM) | – | – | 43 | 450 | 8.03 | O=C1N(CCO)c2cc(Cl)cc(Cl)c2C12CCN(c1nc3c(c(=O)[nH]1)CCCC3)CC2 | 2610 |
| 6.8 | 8.2 | > 20000 | 36.5 | 1800 | 80.1 (≈ 194 µM) | – | – | 3.6 | 190 | 4.1 | O=C1N(CCO)c2cccc(F)c2C12CCN(c1nc3c(c(=O)[nH]1)CCCC3)CC2 | 2030 |
| 3.4 | 2.6 | > 20000 | 114 | > 50000 | 0.9 (≈ 2.51 µM) | – | – | – | – | – | COc1ccc(N2CCN(c3nc4c(c(=O)[nH]3)CSCC4)CC2)cc1 | – |
